Assay [1] has as its target T1, human GLP-1 receptor (Homo sapiens, UniProt P43220).
T1 construct: expressed in transfected cells; host or cells: BHK cells (parent line BHKTS13), clone FCW467-12A; membrane preparation
Description: In vitro potency: CRE luciferase reporter gene assay in BHK cells expressing the human GLP-1 receptor. The assay is classed as cell-based. The method, then: The purpose of this example is to test the activity, or potency, of the GLP-1 derivatives in vitro. The in vitro potency is the measure of human GLP-1 receptor activation in a whole cell assay.
In vitro potency was determined by measuring the response of the human GLP-1 receptor in a reporter gene assay. The assay was performed in a stably transfected BHK cell line that expresses the human GLP-1 receptor and contains the DNA for the cAMP response element (CRE) coupled to a promoter and the gene for firefly luciferase (CRE luciferase). When the human GLP-1 receptor is activated it results in the production of cAMP, which in turn results in the luciferase protein being expressed. When assay incubation is completed the luciferase substrate (luciferin) is added and the enzyme converts luciferin to oxyluciferin to produce bioluminescence. The luminescence is measured as the readout for the assay.
The cells were cultured at 5% CO2 in cell culture medium. They were aliquoted and stored in liquid nitrogen. Before each assay an aliquot was taken up and washed twice in PBS before being suspended at the desired concentration in the assay specific buffer.
The assay buffer consisted of 2% ovalbumin and 0.2% Pluronic F-68 in assay medium.
1) Cell stocks were thawed in a 37° C. water bath.
2) Cells were washed three times in PBS.
3) Cells were counted and adjusted to 5×10^3 cells/50 μl (1×10^5 cells/ml) in assay medium. A 50 μl aliquot of cells was transferred to each well in the assay plate.
4) Stocks of the test compounds and reference compounds were diluted to a concentration of 0.2 μM in assay buffer. […] 8) A 100 μl aliquot of steadylite plus reagent was added to each well of the assay plate. 9) Each assay plate was covered with aluminum foil to protect it from light and shaken for 30 min at room temperature. 10) Each assay plate was read in a BioTek Synergy 2 Multi-Mode Reader. Calculations and Results
The data from the BioTek Synergy 2 Multi-Mode Reader were transferred to GraphPad Prism software. The software performs a non-linear regression (log(agonist) vs response (three parameters)).
A minimum of two replicates were measured for each sample. The reported EC50 values are averages of all of the measured values for each compound.

Assay [2] addresses T1, human GLP-1 receptor. Description: GLP-1 receptor binding: competitive binding assay (125I-GLP-1, SPA) on isolated membranes at low and high HSA. The method, then:
The purpose of this example is to test the receptor binding of the GLP-1 derivatives in vitro. The receptor binding is a measure of affinity of a derivative for the human GLP-1 receptor.
Each derivative is added in a series of concentrations to isolated membranes containing the human GLP-1 receptor and displacement of the labelled ligand is monitored. The receptor binding is reported as the concentration at which half of the labelled ligand is displaced from the receptor, the IC50 value.
Buffer 1 consisted of 20 mM Na-HEPES plus 10 mM EDTA and pH was adjusted to 7.4. Buffer 2 consisted of 20 mM Na-HEPES plus 0.1 mM EDTA and pH was adjusted to 7.4. Assay buffer consisted of 50 mM HEPES supplemented with 5 mM EGTA, 5 mM MgCl2, 0.005% Tween 20 and pH was adjusted to 7.4. An 8% albumin stock consisted of HSA dissolved at 8% (w/v) in assay buffer. An 0.02% albumin stock consisted of HSA dissolved at 0.02% (w/v) in assay buffer.
The cells express the human GLP-1 receptor.
The cells were grown at 5% CO2 in DMEM, 10% fetal calf serum, 1% Pen/Strep (Penicillin/Streptomycin) and 1.0 mg/ml of the selection marker G418. To make a membrane preparation the cells were grown to approximately 80% confluence. The cells were washed twice in phosphate-buffered saline and harvested. The cells were pelleted using a brief centrifugation and the cell pellet was kept on ice. […] The homogenate was centrifuged for 15 minutes. The pellet was re-suspended (homogenised) in 10 ml buffer 2 and centrifuged. This step was repeated once more. The resulting pellet was re-suspended in buffer 2 and the protein concentration was determined. The membranes were aliquoted and stored at minus 80° C.
1. […] Assay continued with step 3.
2. For the receptor binding assay in the presence of high HSA (2%) 50 μl of the 8% albumin stock was added to each well of an assay plate. Assay continued with step 3.
4. Cell membrane aliquots were thawed and diluted to their working concentration. Fifty μl were added to each well in the assay plate.
5. WGA SPA beads were suspended in assay buffer at 20 mg/ml. The suspension was diluted to 10 mg/ml in assay buffer just prior to addition to the assay plate. Fifty μl were added to each well in the assay plate.
6. […] A 25 μl aliquot was reserved for measuring total counts/well.
7. The assay plate was incubated for 2 h at 30° C.
8. The assay plate was centrifuged for 10 min.
9. The assay plate was read in a Packard TopCount NXT instrument.
The data from the TopCount instrument were transferred to GraphPad Prism software. Individual replicates were analysed using non-linear regression. IC50 values were calculated by the software and reported in nM. The reported values are averages of all of the measured values for each compound.

The mark [3] stands for this setting: High HSA IC50, high HSA (2.0% final assay concentration).
Setting [4] is: Low HSA IC50, low HSA (max. 0.001% final assay concentration).

Read-outs that look alike come from different tables or passages of the source.

T1 sequence (P43220 24-463): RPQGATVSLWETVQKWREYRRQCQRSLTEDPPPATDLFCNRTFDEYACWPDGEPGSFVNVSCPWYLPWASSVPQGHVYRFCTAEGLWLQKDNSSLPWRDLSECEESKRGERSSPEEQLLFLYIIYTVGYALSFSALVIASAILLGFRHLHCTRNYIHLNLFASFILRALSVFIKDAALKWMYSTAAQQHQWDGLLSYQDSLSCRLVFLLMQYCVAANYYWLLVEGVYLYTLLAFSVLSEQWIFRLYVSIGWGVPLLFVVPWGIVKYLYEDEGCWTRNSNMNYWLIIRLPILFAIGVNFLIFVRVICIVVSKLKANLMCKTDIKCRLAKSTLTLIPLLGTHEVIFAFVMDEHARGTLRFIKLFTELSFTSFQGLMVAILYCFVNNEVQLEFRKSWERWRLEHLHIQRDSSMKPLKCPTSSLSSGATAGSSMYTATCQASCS

Regarding `CC[C@H](C)[C@H](NC(=O)[C@H](Cc1ccccc1)NC(=O)[C@H](CCC(=O)O)NC(=O)[C@H](CCCNC(=N)N)NC(=O)[C@H](C)NC(=O)[C@H](C)NC(=O)[C@H](CCC(N)=O)NC(=O)[C@H](CCC(=O)O)NC(=O)[C@H](CCC(=O)O)NC(=O)[C@H](CC(C)C)NC(=O)[C@H](Cc1ccc(O)cc1)NC(=O)[C@H](CO)NC(=O)[C@H](CO)NC(=O)[C@@H](NC(=O)[C@H](CC(=O)O)NC(=O)[C@H](CO)NC(=O)[C@@H](NC(=O)[C@H](Cc1ccccc1)NC(=O)[C@@H](NC(=O)CNC(=O)[C@H](CCC(=O)O)NC(=O)C(C)(C)NC(=O)[C@@H](N)Cc1c[nH]cn1)[C@@H](C)O)[C@@H](C)O)C(C)C)C(=O)N[C@@H](C)C(=O)N[C@@H](Cc1c[nH]c2ccccc12)C(=O)N[C@@H](CC(C)C)C(=O)N[C@H](C(=O)N[C@@H](CCCNC(=N)N)C(=O)NCC(=O)N[C@@H](CCCNC(=N)N)C(=O)N[C@@H](CCCCNC(=O)CN(CCCNC(=O)COCCOCCNC(=O)COCCOCCNC(=O)COCCOCCNC(=O)COCCOCCNC(=O)COCCOCCNC(=O)COCCOCCNC(=O)CC[C@H](NC(=O)CCCNC(=O)CCCCCCCCCCCCCCCS(=O)(=O)O)C(=O)O)CCCNC(=O)COCCOCCNC(=O)COCCOCCNC(=O)COCCOCCNC(=O)COCCOCCNC(=O)COCCOCCNC(=O)COCCOCCNC(=O)CC[C@H](NC(=O)CCCNC(=O)CCCCCCCCCCCCCCCS(=O)(=O)O)C(=O)O)C(=O)O)C(C)C` [Example 18, N{Epsilon-37}-[2-[bis[3-[[2-[2-[2-[[2-[2-[2-[[2-[2-[2-[[2-[2-[2-[[2-[2-[2-[[2-[2-[2-[[(4S)-4-carboxy-4-[4-(16-sulfohexadecanoylamino)butanoylamino]butanoyl]amino]ethoxy]ethoxy]acetyl]amino]ethoxy]ethoxy]acetyl]amino]ethoxy]ethoxy]acetyl]amino]ethoxy]ethoxy]acetyl]amino]ethoxy]ethoxy]acetyl]amino]ethoxy]ethoxy]acetyl]amino]propyl]amino]acetyl]-[Aib8,Glu22,Arg26,Arg34,Lys37]-GLP-1-(7-37)-peptide], the EC50 at human GLP-1 receptor [1] was determined as 0.0013 nM. For the same compound, the half-maximal inhibitory concentration (IC50) on human GLP-1 receptor [2] (setting [3]) stood at 5.7 nM; at human GLP-1 receptor [2] (setting [4]), 0.18 nM.
For `CC[C@H](C)[C@H](NC(=O)[C@H](Cc1ccccc1)NC(=O)[C@H](CCC(=O)O)NC(=O)[C@H](CCCNC(=N)N)NC(=O)[C@H](C)NC(=O)[C@H](C)NC(=O)[C@H](CCC(N)=O)NC(=O)[C@H](CCC(=O)O)NC(=O)[C@H](CCC(=O)O)NC(=O)[C@H](CC(C)C)NC(=O)[C@H](Cc1ccc(O)cc1)NC(=O)[C@H](CO)NC(=O)[C@H](CO)NC(=O)[C@@H](NC(=O)[C@H](CC(=O)O)NC(=O)[C@H](CO)NC(=O)[C@@H](NC(=O)[C@H](Cc1ccccc1)NC(=O)[C@@H](NC(=O)CNC(=O)[C@H](CCC(=O)O)NC(=O)C(C)(C)NC(=O)[C@@H](N)Cc1c[nH]cn1)[C@@H](C)O)[C@@H](C)O)C(C)C)C(=O)N[C@@H](C)C(=O)N[C@@H](Cc1c[nH]c2ccccc12)C(=O)N[C@@H](CC(C)C)C(=O)N[C@H](C(=O)N[C@@H](CCCNC(=N)N)C(=O)NCC(=O)N[C@@H](CCCNC(=N)N)C(=O)N[C@@H](CCCCNC(=O)CN(CCCNC(=O)COCCOCCNC(=O)COCCOCCNC(=O)COCCOCCNC(=O)COCCOCCNC(=O)COCCOCCNC(=O)COCCOCCNC(=O)CC[C@H](NC(=O)[C@H]1CC[C@H](CNC(=O)CCCCCCCCCCCCCCCS(=O)(=O)O)CC1)C(=O)O)CCCNC(=O)COCCOCCNC(=O)COCCOCCNC(=O)COCCOCCNC(=O)COCCOCCNC(=O)COCCOCCNC(=O)COCCOCCNC(=O)CC[C@H](NC(=O)[C@H]1CC[C@H](CNC(=O)CCCCCCCCCCCCCCCS(=O)(=O)O)CC1)C(=O)O)C(=O)O)C(C)C` [Example 24], the EC50 at human GLP-1 receptor [1] (whole cell reporter gene assay, BHK cells, human GLP-1 receptor, average of at least two replicates, read-out: EC50) worked out at 0.0018 nM. For the same compound, the IC50 on human GLP-1 receptor [2] (setting [4]) was 0.16 nM; at human GLP-1 receptor [2] (high HSA (2.0% final assay concentration), read-out: High HSA IC50) it was 32 nM.
As to `CC[C@H](C)[C@H](NC(=O)[C@H](Cc1ccccc1)NC(=O)[C@H](CCC(=O)O)NC(=O)[C@H](CCCNC(=N)N)NC(=O)[C@H](C)NC(=O)[C@H](C)NC(=O)[C@H](CCC(N)=O)NC(=O)[C@H](CCC(=O)O)NC(=O)[C@H](CCC(=O)O)NC(=O)[C@H](CC(C)C)NC(=O)[C@H](Cc1ccc(O)cc1)NC(=O)[C@H](CO)NC(=O)[C@H](CO)NC(=O)[C@@H](NC(=O)[C@H](CC(=O)O)NC(=O)[C@H](CO)NC(=O)[C@@H](NC(=O)[C@H](Cc1ccccc1)NC(=O)[C@@H](NC(=O)CNC(=O)[C@H](CCC(=O)O)NC(=O)C(C)(C)NC(=O)[C@@H](N)Cc1c[nH]cn1)[C@@H](C)O)[C@@H](C)O)C(C)C)C(=O)N[C@@H](C)C(=O)N[C@@H](Cc1c[nH]c2ccccc12)C(=O)N[C@@H](CC(C)C)C(=O)N[C@H](C(=O)N[C@@H](CCCNC(=N)N)C(=O)NCC(=O)N[C@@H](CCCNC(=N)N)C(=O)N[C@@H](CCCCNC(=O)CN(CCCNC(=O)COCCOCCNC(=O)COCCOCCNC(=O)COCCOCCNC(=O)COCCOCCNC(=O)COCCOCCNC(=O)COCCOCCNC(=O)CC[C@H](NC(=O)[C@H]1CC[C@H](CNC(=O)CCCNC(=O)CCCCCCCCCCCCCCCS(=O)(=O)O)CC1)C(=O)O)CCCNC(=O)COCCOCCNC(=O)COCCOCCNC(=O)COCCOCCNC(=O)COCCOCCNC(=O)COCCOCCNC(=O)COCCOCCNC(=O)CC[C@H](NC(=O)[C@H]1CC[C@H](CNC(=O)CCCNC(=O)CCCCCCCCCCCCCCCS(=O)(=O)O)CC1)C(=O)O)C(=O)O)C(C)C` [Example 21], the EC50 on human GLP-1 receptor [1] came out at 0.0015 nM. In addition, the IC50 on human GLP-1 receptor [2] (setting [3]) worked out at 16 nM; at human GLP-1 receptor [2] (setting [4]), 0.13 nM.

(Values after patent US11572398B2, “GLP-1 derivatives and uses thereof” (Novo Nordisk A/S, priority 2014, dated 2023).)
